Measured values: patent US20240174649A1, “CULLIN-RING E3 UBIQUITIN LIGASE 4 INHIBITOR COMPOUNDS AND METHODS OF THEIR USE” (ICAHN SCHOOL OF MEDICINE AT MOUNT SINAI, priority 2021, published 2024)

Key:
[1] = system: cancer cells; experiment: Apoptosis, Annexin V flow cytometry; format: cell-based; details: Table 1
Procedure: Cells (5×10^4) were seeded 24 hours before compound treatment. Compound was added to the culture media and cells were cultured with the compound for 48 hours. The treated cells were then transferred into 5 ml flow cytometry tubes and the well was washed once with PBS to collect any remaining cells. The cells were then pelleted at 500×g for 5 min with a Beckman CS-6KR centrifuge at 4° C. After removal of supernatant, the cells pellet was washed with Annexin V binding buffer (10 mM Hepes-NaOH, pH 7.4, 150 mM NaCl, 5 mM KCl, 1 mM MgCl2, and 1.8 mM CaCl2). Cells were pelleted once again and incubated in the dark with Annexin V-FITC (2 μg/ml) in binding buffer for 5 min then analyzed using LSRFortessa flow cytometer (BD).

[2] = target: E3 (CUL1) (Homo sapiens (Human), UniProt Q13616); experiment: E3 (CUL1) inhibition (Table 1); format: biochemical
Sequence of E3 (CUL1) (Q13616 whole entry): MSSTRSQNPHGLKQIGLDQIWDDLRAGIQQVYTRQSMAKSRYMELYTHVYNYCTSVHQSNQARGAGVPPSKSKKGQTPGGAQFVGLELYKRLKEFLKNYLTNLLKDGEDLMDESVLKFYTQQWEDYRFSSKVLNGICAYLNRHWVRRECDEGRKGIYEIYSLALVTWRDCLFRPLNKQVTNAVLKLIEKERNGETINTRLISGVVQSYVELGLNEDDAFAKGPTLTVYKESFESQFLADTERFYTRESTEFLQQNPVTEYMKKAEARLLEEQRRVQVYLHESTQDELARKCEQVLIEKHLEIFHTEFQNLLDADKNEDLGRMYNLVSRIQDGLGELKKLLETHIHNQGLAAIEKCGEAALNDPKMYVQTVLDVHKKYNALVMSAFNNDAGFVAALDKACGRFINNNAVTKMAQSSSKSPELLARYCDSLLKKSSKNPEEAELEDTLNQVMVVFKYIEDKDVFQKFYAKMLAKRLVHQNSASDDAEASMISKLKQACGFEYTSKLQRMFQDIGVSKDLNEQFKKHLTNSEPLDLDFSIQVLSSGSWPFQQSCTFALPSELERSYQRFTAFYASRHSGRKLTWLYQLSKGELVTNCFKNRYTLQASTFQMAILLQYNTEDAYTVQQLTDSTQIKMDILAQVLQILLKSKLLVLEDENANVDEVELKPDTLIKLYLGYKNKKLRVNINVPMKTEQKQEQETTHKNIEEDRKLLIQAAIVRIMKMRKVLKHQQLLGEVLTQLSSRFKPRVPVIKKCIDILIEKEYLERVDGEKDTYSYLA
Sequence of E3 (CUL1) (P62877 whole entry partner): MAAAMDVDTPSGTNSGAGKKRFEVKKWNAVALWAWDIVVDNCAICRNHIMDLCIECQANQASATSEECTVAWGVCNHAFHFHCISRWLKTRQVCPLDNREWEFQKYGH
Procedure: The reaction mixture (15 μl) was assembled onto a 384-well microtiter plate. […] ATP (0.66 mM) was then added to the mix followed by a brief centrifugation to settle down the mixture. The resulting plate was incubated at 30° C. in the Synergy-H1 reader and the fluorescence signal was monitored. Ubiquitination was quantified based on the ratio of acceptor:donor fluorescence (excitation 515 nm; donor emission 570 nm, acceptor emission 670 nm).

[3] = target: E3 (CUL4) (Homo sapiens (Human), UniProt Q13619); experiment: E3 (CUL4) inhibition (Table 1); format: biochemical
Sequence of E3 (CUL4) (Q13619 whole entry): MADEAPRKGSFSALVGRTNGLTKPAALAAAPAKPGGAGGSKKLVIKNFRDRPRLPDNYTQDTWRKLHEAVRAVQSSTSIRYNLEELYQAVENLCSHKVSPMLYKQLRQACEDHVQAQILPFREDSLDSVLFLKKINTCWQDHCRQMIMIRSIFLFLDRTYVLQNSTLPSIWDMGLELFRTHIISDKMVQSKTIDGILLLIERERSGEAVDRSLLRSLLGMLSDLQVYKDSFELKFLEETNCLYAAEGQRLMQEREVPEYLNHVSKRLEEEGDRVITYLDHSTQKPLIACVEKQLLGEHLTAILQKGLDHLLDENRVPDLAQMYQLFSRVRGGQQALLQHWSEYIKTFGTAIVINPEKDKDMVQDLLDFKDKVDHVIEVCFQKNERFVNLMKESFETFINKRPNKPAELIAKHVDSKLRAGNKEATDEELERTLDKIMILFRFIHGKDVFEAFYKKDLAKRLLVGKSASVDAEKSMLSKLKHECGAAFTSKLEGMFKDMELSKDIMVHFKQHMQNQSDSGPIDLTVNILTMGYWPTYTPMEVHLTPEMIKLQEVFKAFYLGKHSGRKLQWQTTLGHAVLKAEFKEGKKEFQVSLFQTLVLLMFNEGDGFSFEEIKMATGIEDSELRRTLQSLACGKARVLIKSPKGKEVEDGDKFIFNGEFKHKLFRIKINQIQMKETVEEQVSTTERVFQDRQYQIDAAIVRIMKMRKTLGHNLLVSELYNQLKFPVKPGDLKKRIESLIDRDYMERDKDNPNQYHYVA
Sequence of E3 (CUL4) (P62877 whole entry partner): as the sequence (P62877 whole entry partner) above
Procedure: The reaction was incubated for 5 min at 37° C. […] The reaction was incubated for 5 min at room temperature. In the second step (chase), the completed Cdc34b-Ub thiol ester reaction mixture was combined with one third of the completed mono-ubiquitination mixture. The final volume was adjusted to 10 μl with a mix that contained 50 mM Tris-HCl (pH 7.4), 0.5 mM DTT, 0.1 mg/ml of BSA, 5 mM MgCl2, and 2 mM ATP. Compounds were added where indicated. The chase reaction was incubated for 10 min at 37° C. The reaction products were separated by 4-20% SDS-polyacrylamide gel electrophoresis. The reaction scheme was identical to the one described above for FIGS. 12A-B. […] The reaction products, separated by SDS-PAGE, were visualized and analyzed by phospho-imaging using Typhoon 9500 scanner.

Compound	EC50 [1] [µM]	EC50 [2] [µM]	EC50 [3] [µM]
COc1ccc2c(=O)c(-c3cnn(Cc4ccc(Cl)cc4)c3)c(C(F)(F)F)oc2c1OC [MSSM-RJD-MM-001, 3-(1-(4-chlorobenzyl)-1H-pyrazol-4-yl)-7,8-dimethoxy-2-(trifluoromethyl)-4H-chromen-4-one]	> 20	> 100	> 10
CCCCn1cc(-c2c(C(F)(F)F)oc3c(OC)c(OC)ccc3c2=O)cn1 [MSSM-RJD-MM-002, 3-(1-butyl-1H-pyrazol-4-yl)-7,8-dimethoxy-2-(trifluoromethyl)-4H-chromen-4-one]	> 20	96	> 10
COc1ccc2c(=O)c(-c3cnn(C(C)C)c3)c(C(F)(F)F)oc2c1OC [MSSM-RJD-MM-003, 3-(1-isopropyl-1H-pyrazol-4-yl)-7,8-dimethoxy-2-(trifluoromethyl)-4H-chromen-4-one]	> 20	> 100	> 10
CCCn1cc(-c2c(C(F)(F)F)oc3c(OC)c(OC)ccc3c2=O)cn1 [MSSM-RJD-MM-004]	> 20	> 100	> 10
CCn1cc(-c2c(C(F)(F)F)oc3c(OC)c(OC)ccc3c2=O)cn1 [MSSM-RJD-MM-005]	> 20	> 100	> 10
O=c1c(-c2cnn(Cc3ccc(Cl)cc3)c2)c(C(F)(F)F)oc2c(O)c(O)ccc12 [MSSM-RJD-MM-006, 3-(1-(4-chlorobenzyl)-1H-pyrazol-4-yl)-7,8-dihydroxy-2-(trifluoromethyl)-4H-chromen-4-one]	> 20	7.6	> 10
CCCCn1cc(-c2c(C(F)(F)F)oc3c(O)c(O)ccc3c2=O)cn1 [MSSM-RJD-MM-007, 3-(1-butyl-1H-pyrazol-4-yl)-7,8-dihydroxy-2-(trifluoromethyl)-4H-chromen-4-one]	> 20	3.8	> 10
CCCn1cc(-c2c(C(F)(F)F)oc3c(O)c(O)ccc3c2=O)cn1 [MSSM-RJD-MM-008, 7,8-dihydroxy-3-(1-propyl-1H-pyrazol-4-yl)-2-(trifluoromethyl)-4H-chromen-4-one]	> 20	4	> 10
CCn1cc(-c2c(C(F)(F)F)oc3c(O)c(O)ccc3c2=O)cn1 [MSSM-RJD-MM-009, 3-(1-ethyl-1H-pyrazol-4-yl)-7,8-dihydroxy-2-(trifluoromethyl)-4H-chromen-4-one]	> 20	6	> 10
COc1ccc2c(=O)c(-c3cnn(Cc4ccc(F)cc4)c3)c(C(F)(F)F)oc2c1OC [MSSM-RJD-MM-010, 3-(1-(4-fluorobenzyl)-1H-pyrazol-4-yl)-7,8-dimethoxy-2-(trifluoromethyl)-4H-chromen-4-one]	> 20	> 100	> 10
COc1ccc2c(=O)c(-c3cnn(Cc4ccc(C(F)(F)F)cc4)c3)c(C(F)(F)F)oc2c1OC [MSSM-RJD-MM-011, 7,8-dimethoxy-2-(trifluoromethyl)-3-(1-(4-(trifluoromethyl)benzyl)-1H-pyrazol-4-yl)-4H-chromen-4-one]	> 20	> 100	> 10
COc1ccc2c(=O)c(-c3cnn(Cc4ccccc4Cl)c3)c(C(F)(F)F)oc2c1OC [MSSM-RJD-MM-012, 3-(1-(2-chlorobenzyl)-1H-pyrazol-4-yl)-7,8-dimethoxy-2-(trifluoromethyl)-4H-chromen-4-one]	> 20	> 100	> 10
O=c1c(-c2cnn(Cc3ccc(F)cc3)c2)c(C(F)(F)F)oc2c(O)c(O)ccc12 [MSSM-RJD-MM-013, 3-(1-(4-fluorobenzyl)-1H-pyrazol-4-yl)-7,8-dihydroxy-2-(trifluoromethyl)-4H-chromen-4-one]	> 20	7.2	> 30
O=c1c(-c2cnn(Cc3ccc(C(F)(F)F)cc3)c2)c(C(F)(F)F)oc2c(O)c(O)ccc12 [MSSM-RJD-MM-014, 7,8-dihydroxy-2-(trifluoromethyl)-3-(1-(4-(trifluoromethyl)benzyl)-1H-pyrazol-4-yl)-4H-chromen-4-one]	~8	5.4	~10
O=c1c(-c2cnn(Cc3ccccc3Cl)c2)c(C(F)(F)F)oc2c(O)c(O)ccc12 [MSSM-RJD-MM-015, 3-(1-(2-chlorobenzyl)-1H-pyrazol-4-yl)-7,8-dihydroxy-2-(trifluoromethyl)-4H-chromen-4-one]	> 20	8.2	> 10
COc1ccc2c(=O)c(-c3cnn(Cc4ccccc4F)c3)c(C(F)(F)F)oc2c1OC [MSSM-RJD-MM-016, 3-(1-(2-fluorobenzyl)-1H-pyrazol-4-yl)-7,8-dimethoxy-2-(trifluoromethyl)-4H-chromen-4-one]	> 20	> 100	> 10
COc1ccc2c(=O)c(-c3cnn(Cc4cccc(C(F)(F)F)c4Cl)c3)c(C(F)(F)F)oc2c1OC [MSSM-RJD-MM-020]	> 20	53	> 10
COc1ccc2c(=O)c(-c3cnn(Cc4cc(F)ccc4C(F)(F)F)c3)c(C(F)(F)F)oc2c1OC [MSSM-RJD-MM-021, 3-(1-(5-fluoro-2-(trifluoromethyl)benzyl)-1H-pyrazol-4-yl)-7,8-dimethoxy-2-(trifluoromethyl)-4H-chromen-4-one]	~20	66	> 10
O=c1c(-c2cnn(Cc3ccccc3F)c2)c(C(F)(F)F)oc2c(O)c(O)ccc12 [MSSM-RJD-MM-022, 3-(1-(2-fluorobenzyl)-1H-pyrazol-4-yl)-7,8-dihydroxy-2-(trifluoromethyl)-4H-chromen-4-one]	> 20	30	> 10
O=c1c(-c2cnn(Cc3cccc(Cl)c3)c2)c(C(F)(F)F)oc2c(O)c(O)ccc12 [MSSM-RJD-MM-023, 3-(1-(3-chlorobenzyl)-1H-pyrazol-4-yl)-7,8-dihydroxy-2-(trifluoromethyl)-4H-chromen-4-one]	10 to 20	8.4	> 10
O=c1c(-c2cnn(Cc3cccc(F)c3)c2)c(C(F)(F)F)oc2c(O)c(O)ccc12 [MSSM-RJD-MM-024, 3-(1-(3-fluorobenzyl)-1H-pyrazol-4-yl)-7,8-dihydroxy-2-(trifluoromethyl)-4H-chromen-4-one]	10 to 20	7.9	> 10
Cc1cccc(Cn2cc(-c3c(C(F)(F)F)oc4c(O)c(O)ccc4c3=O)cn2)c1 [MSSM-RJD-MM-025, 7,8-dihydroxy-3-(1-(3-methylbenzyl)-1H-pyrazol-4-yl)-2-(trifluoromethyl)-4H-chromen-4-one]	10 to 20	3.9	> 10
O=c1c(-c2cnn(Cc3cc(C(F)(F)F)ccc3F)c2)c(C(F)(F)F)oc2c(O)c(O)ccc12 [MSSM-RJD-MM-026, 3-(1-(2-fluoro-5-(trifluoromethyl)benzyl)-1H-pyrazol-4-yl)-7,8-dihydroxy-2-(trifluoromethyl)-4H-chromen-4-one]	> 20	6.5	> 10
O=c1c(-c2cnn(Cc3cc(C(F)(F)F)ccc3Cl)c2)c(C(F)(F)F)oc2c(O)c(O)ccc12 [MSSM-RJD-MM-027, 3-(1-(2-chloro-5-(trifluoromethyl)benzyl)-1H-pyrazol-4-yl)-7,8-dihydroxy-2-(trifluoromethyl)-4H-chromen-4-one]	10 to 20	5.6	> 10
O=c1c(-c2cnn(Cc3cc(F)ccc3C(F)(F)F)c2)c(C(F)(F)F)oc2c(O)c(O)ccc12 [MSSM-RJD-MM-028]	~20	7.3	~10
